Measurements taken from ChEMBL document CHEMBL2150993, “Substituted thiazoles VII. Synthesis and antitumor activity of certain 2-(substituted amino)-4-phenyl-1,3-thiazole analogs” (2012).

How the values were obtained:
Format in all cases: functional
Conditions in all cases: at 10 µM
SK-MEL-28 = assay: Growth inhibition of human SK-MEL-28 cells after 48 hrs by cell counting analysis
M14 = assay: Growth inhibition of human M14 cells after 48 hrs by cell counting analysis
A549 = assay: Growth inhibition of human A549 cells after 48 hrs by cell counting analysis
HCC 2998 = assay: Growth inhibition of human HCC2998 cells after 48 hrs by cell counting analysis
SK-MEL-5 = assay: Growth inhibition of human SK-MEL-5 cells after 48 hrs by cell counting analysis
PC-3 = assay: Growth inhibition of human PC3 cells after 48 hrs by cell counting analysis
EKVX = assay: Growth inhibition of human EKVX cells after 48 hrs by cell counting analysis
OVCAR-3 = assay: Growth inhibition of human OVCAR3 cells after 48 hrs by cell counting analysis
HT-29 = assay: Growth inhibition of human HT-29 cells after 48 hrs by cell counting analysis
SN12C = assay: Growth inhibition of human SN12C cells after 48 hrs by cell counting analysis
CAKI-1 = assay: Growth inhibition of human Caki1 cells after 48 hrs by cell counting analysis
SNB-75 = assay: Growth inhibition of human SNB75 cells after 48 hrs by cell counting analysis
U-251 = assay: Growth inhibition of human U251 cells after 48 hrs by cell counting analysis
RXF 393 = assay: Growth inhibition of human RXF393 cells after 48 hrs by cell counting analysis
MDA-MB-435 = assay: Growth inhibition of human MDA-MB-435 cells after 48 hrs by cell counting analysis
MOLT-4 = assay: Growth inhibition of human MOLT4 cells after 48 hrs by cell counting analysis
RPMI-8226 = assay: Growth inhibition of human RPMI8226 cells after 48 hrs by cell counting analysis
UACC-257 = assay: Growth inhibition of human UACC257 cells after 48 hrs by cell counting analysis
KM12 = assay: Growth inhibition of human KM12 cells after 48 hrs by cell counting analysis
NCI-H522 = assay: Growth inhibition of human NCI-H522 cells after 48 hrs by cell counting analysis
TK-10 = assay: Growth inhibition of human TK10 cells after 48 hrs by cell counting analysis
MCF7 = assay: Growth inhibition of human MCF7 cells after 48 hrs by cell counting analysis
UACC-62 = assay: Growth inhibition of human UACC62 cells after 48 hrs by cell counting analysis
SF-268 = assay: Growth inhibition of human SF268 cells after 48 hrs by cell counting analysis
T47D = assay: Growth inhibition of human T47D cells after 48 hrs by cell counting analysis
BT-549 = assay: Growth inhibition of human BT549 cells after 48 hrs by cell counting analysis
SR = assay: Growth inhibition of human SR cells after 48 hrs by cell counting analysis
CCRF-CEM = assay: Growth inhibition of human CCRF-CEM cells after 48 hrs by cell counting analysis
LOX IMVI = assay: Growth inhibition of human LOXIMVI cells after 48 hrs by cell counting analysis
HOP-62 = assay: Growth inhibition of human HOP62 cells after 48 hrs by cell counting analysis
OVCAR-4 = assay: Growth inhibition of human OVCAR4 cells after 48 hrs by cell counting analysis
SF-539 = assay: Growth inhibition of human SF539 cells after 48 hrs by cell counting analysis
HCT-116 = assay: Growth inhibition of human HCT116 cells after 48 hrs by cell counting analysis
UO-31 = assay: Growth inhibition of human UO31 cells after 48 hrs by cell counting analysis
SNB-19 = assay: Growth inhibition of human SNB19 cells after 48 hrs by cell counting analysis
IGROV-1 = assay: Growth inhibition of human IGROV1 cells after 48 hrs by cell counting analysis
HOP-92 = assay: Growth inhibition of human HOP92 cells after 48 hrs by cell counting analysis
HCT-15 = assay: Growth inhibition of human HCT15 cells after 48 hrs by cell counting analysis
HL-60 = assay: Growth inhibition of human HL60 cells after 48 hrs by cell counting analysis
NCI-H226 = assay: Growth inhibition of human NCI-H226 cells after 48 hrs by cell counting analysis
NCI-H23 = assay: Growth inhibition of human NCI-H23 cells after 48 hrs by cell counting analysis
SF-295 = assay: Growth inhibition of human SF295 cells after 48 hrs by cell counting analysis
[1] = Growth inhibition of human NCI-ADR-RES cells after 48 hrs by cell counting analysis
K562 = assay: Growth inhibition of human K562 cells after 48 hrs by cell counting analysis
SW-620 = assay: Growth inhibition of human SW620 cells after 48 hrs by cell counting analysis
ACHN = assay: Growth inhibition of human ACHN cells after 48 hrs by cell counting analysis
Malme-3M = assay: Growth inhibition of human MALME-3M cells after 48 hrs by cell counting analysis
SK-MEL-2 = assay: Growth inhibition of human SK-MEL-2 cells after 48 hrs by cell counting analysis
MDA-MB-468 = assay: Growth inhibition of human MDA-MB-468 cells after 48 hrs by cell counting analysis
OVCAR-8 = assay: Growth inhibition of human OVCAR8 cells after 48 hrs by cell counting analysis
MDA-MB-231 = assay: Growth inhibition of human MDA-MB-231 cells after 48 hrs by cell counting analysis
OVCAR-5 = assay: Growth inhibition of human OVCAR5 cells after 48 hrs by cell counting analysis
SK-OV-3 = assay: Growth inhibition of human SKOV3 cells after 48 hrs by cell counting analysis
[2] = Growth inhibition of human NCI-322M cells after 48 hrs by cell counting analysis

O=C(CCN1CCN(c2ccccc2)CC1)Nc1nc(-c2ccc(Cl)cc2)cs1
growth inhibition (GI) (SK-MEL-28): <10%
growth inhibition (GI) (M14): <10%
growth inhibition (GI) (A549): 12%
growth inhibition (GI) (HCC 2998): <10%
growth inhibition (GI) (SK-MEL-5): 10.1%
growth inhibition (GI) (PC-3): 12%
growth inhibition (GI) (EKVX): <10%
growth inhibition (GI) (OVCAR-3): <10%
growth inhibition (GI) (HT-29): 18.6%
growth inhibition (GI) (SN12C): 11.9%
growth inhibition (GI) (CAKI-1): <10%
growth inhibition (GI) (SNB-75): 14.9%
growth inhibition (GI) (U-251): <10%
growth inhibition (GI) (RXF 393): <10%
growth inhibition (GI) (MDA-MB-435): <10%
growth inhibition (GI) (MOLT-4): 36.3%
growth inhibition (GI) (RPMI-8226): 25.4%
growth inhibition (GI) (UACC-257): <10%
growth inhibition (GI) (KM12): <10%
growth inhibition (GI) (NCI-H522): 18.7%
growth inhibition (GI) (TK-10): <10%
growth inhibition (GI) (MCF7): 10.9%
growth inhibition (GI) (UACC-62): 20.5%
growth inhibition (GI) (SF-268): <10%
growth inhibition (GI) (T47D): <10%
growth inhibition (GI) (BT-549): <10%
growth inhibition (GI) (SR): <10%
growth inhibition (GI) (CCRF-CEM): 16.3%
growth inhibition (GI) (LOX IMVI): <10%
growth inhibition (GI) (HOP-62): <10%
growth inhibition (GI) (OVCAR-4): <10%
growth inhibition (GI) (SF-539): <10%
growth inhibition (GI) (HCT-116): 19.4%
growth inhibition (GI) (UO-31): 38.6%
growth inhibition (GI) (SNB-19): <10%
growth inhibition (GI) (IGROV-1): <10%
growth inhibition (GI) (HOP-92): 23.7%
growth inhibition (GI) (HCT-15): <10%
growth inhibition (GI) (HL-60): 19.6%
growth inhibition (GI) (NCI-H226): 14.1%
growth inhibition (GI) (NCI-H23): 13.7%
growth inhibition (GI) (SF-295): 24.2%
growth inhibition (GI) [1]: <10%
growth inhibition (GI) (K562): 21.6%
growth inhibition (GI) (SW-620): <10%
growth inhibition (GI) (ACHN): <10%
growth inhibition (GI) (Malme-3M): <10%
growth inhibition (GI) (SK-MEL-2): <10%
growth inhibition (GI) (MDA-MB-468): <10%
growth inhibition (GI) (OVCAR-8): <10%
growth inhibition (GI) (MDA-MB-231): <10%
growth inhibition (GI) (OVCAR-5): <10%
growth inhibition (GI) (SK-OV-3): <10%
growth inhibition (GI) [2]: 27.8%
